Experimental data: article PMC8229952, “Coumarin Derivatives Act as Novel Inhibitors of Human Dipeptidyl Peptidase III: Combined In Vitro and In Silico Study” (Pharmaceuticals, 2021)

Experiments:
[1] = molecular target: T1, human dipeptidyl peptidase III (hDPP III) (Homo sapiens, UniProt Q9NY33); assay: spectrophotometric enzyme assay, % inhibition at […], purified hDPP III; type: biochemical; conditions: for inhibition at 10 µM: read-out: DPP III Inh. (%)
T1 construct: gene DPP3; C-terminally truncated human DPP III (His-tag removed by TEV)
T1 sequence (Q9NY33 1-726 limits assumed): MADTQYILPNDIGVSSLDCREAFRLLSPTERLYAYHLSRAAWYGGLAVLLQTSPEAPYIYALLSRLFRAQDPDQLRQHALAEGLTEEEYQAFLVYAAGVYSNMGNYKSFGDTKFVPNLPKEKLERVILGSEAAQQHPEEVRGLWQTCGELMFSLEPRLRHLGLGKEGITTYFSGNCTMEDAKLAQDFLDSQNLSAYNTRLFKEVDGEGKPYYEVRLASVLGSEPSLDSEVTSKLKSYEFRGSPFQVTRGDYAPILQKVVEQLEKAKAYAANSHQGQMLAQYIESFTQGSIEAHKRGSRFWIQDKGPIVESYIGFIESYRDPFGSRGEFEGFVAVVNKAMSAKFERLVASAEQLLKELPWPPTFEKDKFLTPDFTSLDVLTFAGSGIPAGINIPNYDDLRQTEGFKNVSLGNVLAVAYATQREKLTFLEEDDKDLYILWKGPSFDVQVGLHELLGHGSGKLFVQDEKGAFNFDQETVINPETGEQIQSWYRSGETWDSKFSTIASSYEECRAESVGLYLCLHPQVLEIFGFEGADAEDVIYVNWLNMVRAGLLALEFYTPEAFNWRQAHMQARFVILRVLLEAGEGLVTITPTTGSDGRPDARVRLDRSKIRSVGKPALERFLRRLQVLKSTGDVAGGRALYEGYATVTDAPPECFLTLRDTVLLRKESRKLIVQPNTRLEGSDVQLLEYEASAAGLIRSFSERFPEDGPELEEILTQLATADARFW

[2] = molecular target: T1, human dipeptidyl peptidase III (hDPP III); assay: spectrophotometric enzyme assay with Arg2-2NA substrate, purified hDPP III; type: biochemical; conditions: read-out: DPP III Inh. (%)

inhibition at 10 µM [1] [%] | IC50 [2] [nM] | Structure (SMILES) | also measured
67.5 |  | O=C(c1ccccc1)c1cc2cc(O)ccc2oc1=O [compound 10, 3-benzoyl; 6-hydroxy (substituted 2H-chromen-2-one)] | 
 | 1100 ± 50 | O=C(c1ccccc1)c1cc2ccc(O)cc2oc1=O [compound 12, 3-benzoyl-7-hydroxy-2H-chromen-2-one] | 
44.6 |  | N#Cc1cc2cc(O)ccc2oc1=O [compound 18, 3-cyano; 6-hydroxy (substituted 2-oxo-2H-chromene-3-carbonitrile)] | 
62.6 |  | N#Cc1cc2cccc(O)c2oc1=O [compound 21, 3-cyano; 8-hydroxy (substituted 2-oxo-2H-chromene-3-carbonitrile)] | 
 |  | CCOC(=O)c1cc2cc(O)ccc2oc1=O [compound 27, 3-ethoxycarbonyl; 6-hydroxy (substituted 2H-chromen-2-one)] | DPP III Inh. (%) ([1]; 10 µM): 66.0
 | 2140 ± 60 | COC(=O)c1cc2ccc(O)cc2oc1=O [compound 36, methyl 7-hydroxy-2-oxo-2H-chromene-3-carboxylate] | 
